Results reported in ChEMBL document CHEMBL4400567, “Discovery of novel selective Janus kinase 2 (JAK2) inhibitors bearing a 1H-pyrazolo[3,4-d]pyrimidin-4-amino scaffold” (Bioorg Med Chem, 2019).

Key:
[1] = test system: HEL; test: cells; type: functional, cell-based; conditions: Homo sapiens, 48 h
Description: Antiproliferative activity against human HEL cells harboring JAK2 V617F mutant measured after 48 hrs by CellTiter-Glo assay

[2] = cells; type: ADME, cell-based; conditions: Homo sapiens, NK92, 48 h
Description: Cytotoxicity against human NK92 cells harboring JAK1/3 measured after 48 hrs by CellTiter-Glo assay

[3] = test system: TF-1; test: cells; type: functional, cell-based; conditions: Homo sapiens, TF-1, 48 h
Description: Antiproliferative activity against JAK2 wild-type human TF1 cells measured after 48 hrs by CellTiter-Glo assay

[4] = molecular target: Tyrosine-protein kinase JAK1 (Homo sapiens, UniProt P23458); type: ADME
[5] = test system: THP-1; test: cells; type: ADME, cell-based; conditions: Homo sapiens
Description: Cytotoxicity against IL-4 induced JAK1/3 activated human THP1 cells preincubated for 1 hr followed by IL-4 induction and measured after 1 hr by CellTiter-Glo assay

Sequence of Tyrosine-protein kinase JAK1 (P23458 whole entry): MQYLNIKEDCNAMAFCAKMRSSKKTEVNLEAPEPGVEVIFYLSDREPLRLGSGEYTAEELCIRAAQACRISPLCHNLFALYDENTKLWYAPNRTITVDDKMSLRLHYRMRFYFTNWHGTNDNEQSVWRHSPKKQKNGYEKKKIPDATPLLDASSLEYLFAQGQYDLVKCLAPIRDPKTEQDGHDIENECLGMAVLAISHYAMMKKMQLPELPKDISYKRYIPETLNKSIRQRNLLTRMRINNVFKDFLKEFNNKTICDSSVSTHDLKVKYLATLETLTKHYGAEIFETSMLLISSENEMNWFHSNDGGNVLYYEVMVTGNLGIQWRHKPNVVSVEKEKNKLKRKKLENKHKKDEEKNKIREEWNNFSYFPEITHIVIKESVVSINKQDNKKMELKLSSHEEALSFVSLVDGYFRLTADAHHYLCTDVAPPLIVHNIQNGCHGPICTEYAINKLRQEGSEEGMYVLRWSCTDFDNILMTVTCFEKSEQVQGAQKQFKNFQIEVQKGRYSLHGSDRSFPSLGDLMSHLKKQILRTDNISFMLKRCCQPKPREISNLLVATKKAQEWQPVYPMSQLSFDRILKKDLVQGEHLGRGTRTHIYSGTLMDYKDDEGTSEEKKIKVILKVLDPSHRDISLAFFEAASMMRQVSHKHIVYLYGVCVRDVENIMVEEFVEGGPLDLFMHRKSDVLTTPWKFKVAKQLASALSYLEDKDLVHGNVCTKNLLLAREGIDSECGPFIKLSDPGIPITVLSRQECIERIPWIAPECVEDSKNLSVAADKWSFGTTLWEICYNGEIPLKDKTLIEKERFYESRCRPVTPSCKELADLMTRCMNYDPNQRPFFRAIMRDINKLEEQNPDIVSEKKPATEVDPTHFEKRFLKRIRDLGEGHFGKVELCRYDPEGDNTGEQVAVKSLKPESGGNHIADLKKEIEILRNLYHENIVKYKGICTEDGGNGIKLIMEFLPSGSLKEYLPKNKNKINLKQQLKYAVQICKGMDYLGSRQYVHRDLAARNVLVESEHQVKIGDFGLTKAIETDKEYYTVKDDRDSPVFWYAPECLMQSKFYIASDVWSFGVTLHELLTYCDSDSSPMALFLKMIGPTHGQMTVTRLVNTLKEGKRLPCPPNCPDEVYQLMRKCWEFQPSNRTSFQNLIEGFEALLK

Which IC50 [1] does the source give for C=CC(=O)N1CCCC(n2nc(-c3cc(C=O)n(C)n3)c3c(N)ncnc32)C1 (stereo not given) here?
The IC50 was 8.2 µM.

And the IC50 [2]?
Its IC50 is 23.6 µM.

What about the IC50 [3] of the same compound?
Its IC50 is 7.1 µM.

And the IC50 [4]?
Its IC50 is 0.215 µM.

What about the IC50 [5] of the same compound?
The IC50 was 28.8 µM.

With C=CC(=O)N1CCC(n2nc(-c3cc(C(C)(C)O)n(C)n3)c3c(N)ncnc32)C1 (stereo not given) as the compound, how does the IC50 [1] read?
Its IC50 is 4.7 µM.

And the IC50 [2]?
Its IC50 is 22.1 µM.

What about the IC50 [3] of the same compound?
Its IC50 is 2 µM.

What about the IC50 [4] of the same compound?
The IC50 was 0.104 µM.

What about the IC50 [5] of the same compound?
The IC50 was 18.5 µM.
